Source: BindingDB's records for doi:10.1016/j.bioorg.2015.05.010 (Universiti Teknologi Mara (Uitm), 2015)

Target: T1, Beta-glucuronidase (Bos taurus, UniProt A3KMY8)
T1 sequence (A3KMY8 whole entry): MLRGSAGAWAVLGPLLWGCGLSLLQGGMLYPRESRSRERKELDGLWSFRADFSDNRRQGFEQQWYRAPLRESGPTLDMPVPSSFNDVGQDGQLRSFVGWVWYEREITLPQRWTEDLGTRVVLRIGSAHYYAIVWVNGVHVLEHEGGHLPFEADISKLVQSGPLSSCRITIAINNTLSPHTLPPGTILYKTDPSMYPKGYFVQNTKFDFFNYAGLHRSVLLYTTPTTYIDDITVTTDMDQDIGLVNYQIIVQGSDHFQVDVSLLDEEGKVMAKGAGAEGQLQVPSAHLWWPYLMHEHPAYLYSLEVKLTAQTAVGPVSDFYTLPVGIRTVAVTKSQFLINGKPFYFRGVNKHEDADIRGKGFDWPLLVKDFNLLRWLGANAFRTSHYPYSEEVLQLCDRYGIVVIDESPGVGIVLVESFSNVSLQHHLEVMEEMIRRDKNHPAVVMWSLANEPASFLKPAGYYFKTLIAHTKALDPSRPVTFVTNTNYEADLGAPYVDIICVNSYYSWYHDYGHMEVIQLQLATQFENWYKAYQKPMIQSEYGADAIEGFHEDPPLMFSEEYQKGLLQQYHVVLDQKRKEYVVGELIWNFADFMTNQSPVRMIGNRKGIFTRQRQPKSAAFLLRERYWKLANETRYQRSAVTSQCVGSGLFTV
Assay: Beta-glucuronidase Inhibition Assay
Method: The total reaction volume was 250 µL. […] The reaction mixture contained 185 µL of 0.1 M acetate buffer, 5 µL of test compound solution, 10 µL of enzyme solution was incubated at 37 °C for 30 min. […] All assays were run in triplicate.

IC50 | Compound
28.4 µM | Oc1cccc(-c2nc3c(Cl)cc(Cl)cc3[nH]2)c1 [3-(4,6-dichloro-1H-benzo[d]imidazol-2-yl)phenol (2)]
46.1 µM | Oc1ccc(-c2nc3c(Cl)cc(Cl)cc3[nH]2)cc1O [4-(4,6-dichloro-1H-benzo[d]imidazol-2-yl)benzene-1,2-diol (5)]
60.5 µM | Oc1cccc(-c2nc3c(Cl)cc(Cl)cc3[nH]2)c1O [3-(4,6-dichloro-1H-benzo[d]imidazol-2-yl)benzene-1,2-diol (4)]
14.2 µM | Oc1ccc(-c2nc3c(Cl)cc(Cl)cc3[nH]2)c(O)c1 [4-(4,6-dichloro-1H-benzo[d]imidazol-2-yl)benzene-1,3-diol (6)]
4.48 µM | Oc1ccccc1-c1nc2cc(Cl)cc(Cl)c2[nH]1 [2-(4,6-dichloro-1H-benzo[d]imidazol-2-yl)phenol (1)]
15.5 µM | COc1ccc(O)c(-c2nc3c(Cl)cc(Cl)cc3[nH]2)c1 [2-(4,6-dichloro-1H-benzo[d]imidazol-2-yl)-4-methoxyphenol (8)]
14.2 µM | Oc1ccc(-c2nc3c(Cl)cc(Cl)cc3[nH]2)cc1 [4-(4,6-dichloro-1H-benzo[d]imidazol-2-yl)phenol (3)]
11.5 µM | Oc1ccc(O)c(-c2nc3c(Cl)cc(Cl)cc3[nH]2)c1 [2-(4,6-dichloro-1H-benzo[d]imidazol-2-yl)benzene-1,4-diol (7)]
86.3 µM | COc1ccc(-c2nc3c(Cl)cc(Cl)cc3[nH]2)cc1O [5-(4,6-dichloro-1H-benzo[d]imidazol-2-yl)-2-methoxyphenol (9)]
36.1 µM | Clc1ccc(-c2nc3c(Cl)cc(Cl)cc3[nH]2)cc1 [4,6-Dichloro-2-(4-chlorophenyl)-1H-benzo[d]imidazole (12)]
86.1 µM | Clc1cc(Cl)c2nc(-c3ccccn3)[nH]c2c1 [4,6-dichloro-2-(pyridin-2-yl)-1H-benzo[d]imidazole (19)]
